Patent publication US20140018432A1, “ELECTROCHEMICAL GENERATION OF CHLORINATED UREA DERIVATIVES” (Hercules Incorporated, priority 2012, published 2014)

How the values were obtained:
microorganisms = experiment: Microbiological studies (biocidal activity); details: no details given
[1] = Stability of aqueous solutions of the chlorinated ureas; type: physicochemical

CNC(=O)N(C)Cl [N-chloro-N,N′-dimethylurea]
biocidal activity (microorganisms): potent biocides | stability compared with N-chlorourea [1]: significantly more stable than N-chlorourea | stability of solution ([1]; basic solutions (pH 12 and higher, flow cell without membrane)): not stable | stability of solution ([1]; neutral or acidic environment): significantly more stable

NC(=O)NCl [N-chlorourea]
biocidal activity (microorganisms): potent biocides
